Marks after values point to notes of the source that are not given here.
Columns and labels:
[1] = test system: Male Wistar rats; assay: Chronic anticonvulsant activity using the kainic acid seizure test in rat; format: in vivo; settings: for Wet-shakes Presence: 120 min observation; for Wet-shakes Presence / Rearings Presence / Rearings with Forelimb Clonus Presence: out of 10 animals; for Forelimb Clonus No.: average number of all animals; for Rearings Latency / Rearings with Forelimb Clonus Latency / Wet-shakes Latency: average of all animals
From the text: Chronic Anticonvulsant Activity Using the Kainic Acid Seizure Test in Rat. Dimebolins, including the compounds described herein, are shown to be efficacious in the rat kainic acid anticonvulsant activity model. It is appreciated that this model, though general, may also most closely correspond to and/or be more predictive of temporal lobe epilepsy found in humans. However, it is to be understood that this model is a general surrogate for all types of epilepsy.
Male Wistar rats (such as Male Rj: Wistar (Han) rats, weighing 180-280 g at the day of testing, from Elevage Janvier, 53940 Le Genest-Saint-Isle, France) are placed in groups of 4-5 in macrolon cages (41×25×18 cm or 44×28×19 cm) on wood litter (Litalabo—SPPS, 95100 Argenteuil, France), with free access to food and water until tested, and maintained under artificial lighting (12 hours) between 7:00 and 19:00 in a controlled ambient temperature of about 21° C., and relative humidity between 30-80%. Animals are acclimatized to laboratory conditions for least 3 days. Animals surviving the experiments are sacrificed at the end of the experiments by exposure to a mixture of O2/CO2 (20%/80%) followed by CO2.
Dimebon, or an analog or derivative thereof, either alone or in combination with one or more other compounds as described herein, is evaluated at 3 doses (e.g. 1, 3, and 10 mg/kg), administered i.p. once daily for seven days, with a administration volume of 5 mL/kg. The last administration (7th) is injected 30 minutes prior to kainic acid administration, and compared with a vehicle control group. The test article (single compound or combination) is prepared in 0.2% HPMC in physiological saline as follows: The test article is tested for solubility by cold stirring of the highest intended dose for 10 minutes in physiological saline. If soluble, physiological saline serves as vehicle, and doses are prepared W/V (stock) and then V/V (serial dilutions). Preparations may be made freshly for each day of administration and precautions may be taken to preserve the homogeneity of suspensions (if applicable) during the period of administration.
Diazepam (4 mg/kg i.p.) is administered in 0.2% HPMC in physiological saline 30 minutes prior to KA, and is used as reference substance (positive control). Kainic acid (12 mg/kg i.p.) dissolved in physiological saline is administered 30 minutes following the 7th administration of test article, diazepam, or vehicle control. Additional details are described in Ben-Ari et al, Neuroscience, 6, 1361-1391, 1981 for detecting anticonvulsant activity related to a glutamatergic mechanism.
Animals are injected with kainic acid (12 mg/kg i.p.). The occurrences of the following symptoms are noted over a 120 minute period after kainic acid injection: wet-shakes, rearings, and rearings with forelimb clonus. […] In addition, the latencies to the first appearance of the symptoms are measured and the number of forelimb clonus are counted. The number of forelimb clonus episodes per time interval starting from the first occurrence of forelimb clonus will be considered regarding the severity scale. 10 animals are studied per group. The test is performed blind. Quantitative data is analyzed by comparing treated groups with vehicle control using unpaired Student's t tests. Quantal data is analyzed by comparing treated groups with vehicle control using Fisher's Exact Probability tests.

[2] = test system: Male Wistar rats; assay: Acute anticonvulsant activity using the kainic acid seizure test in rat; format: in vivo; settings: single dose 100 mg/kg i.p. 60 minutes prior to kainic acid
Experimental: Male Wistar rats (such as Male Rj: […] Animals are acclimatized to laboratory conditions for least 3 days. […] Additional details are described in Ben-Ari et al, Neuroscience, 6, 1361-1391, 1981 for detecting anticonvulsant activity related to a glutamatergic mechanism. Animals are injected with kainic acid (12 mg/kg i.p.). The occurrences of the following symptoms are noted over a 120 minute period after kainic acid injection: wet-shakes, rearings, and rearings with forelimb clonus. […] In addition, the latencies to the first appearance of the symptoms are measured and the number of forelimb clonus are counted. The number of forelimb clonus episodes per time interval starting from the first occurrence of forelimb clonus will be considered regarding the severity scale. 10 animals are studied per group. The test is performed blind. Quantitative data is analyzed by comparing treated groups with vehicle control using unpaired Student's t tests. Quantal data is analyzed by comparing treated groups with vehicle control using Fisher's Exact Probability tests. Acute Anticonvulsant Activity Using the Kainic Acid Seizure Test in Rat. Dimebon, or an analog or derivative thereof, including the compounds described herein, is shown to be efficacious in the rat kainic acid anticonvulsant activity model. […] The 100 mg/kg formulation is prepared in 0.2% HPMC in physiological saline.

[3] = at the doses in which it produces its anti-NMDA effect; cited from earlier work
[4] = test system: NMDA receptor; settings: Grigoriev et al. Chim. Pharm. Journal, 1988; cited from earlier work
[5] = reference substance 4 mg/kg i.p. 30 minutes prior to kainic acid
[6] = reference substance 4 mg/kg i.p. 30 minutes prior to kainic acid 12 mg/kg i.p.
[7] = 1 mg/kg i.p. once daily 7 days, last 30 min before kainic acid
[8] = 1 mg/kg i.p. once daily 7 days, last 30 min before kainic acid 12 mg/kg i.p.
[9] = 3 mg/kg i.p. once daily 7 days, last 30 min before kainic acid
[10] = 3 mg/kg i.p. once daily 7 days, last 30 min before kainic acid 12 mg/kg i.p.
[11] = 10 mg/kg i.p. once daily 7 days, last 30 min before kainic acid
[12] = 10 mg/kg i.p. once daily 7 days, last 30 min before kainic acid 12 mg/kg i.p.

CN1C(=O)CN=C(c2ccccc2)c2cc(Cl)ccc21 [Diazepam]
Forelimb Clonus No., % change from vehicle [1, 5]: −79% | Rearings Latency, % change from vehicle [1, 5]: +8% | Rearings Presence, % change from vehicle [1, 5]: 0% | Rearings with Forelimb Clonus Latency, % change from vehicle [1, 5]: +36% | Rearings with Forelimb Clonus Presence, % change from vehicle [1, 5]: −60% | Wet-shakes Latency, % change from vehicle [1, 5]: +53% | Wet-shakes Presence, % change from vehicle [1, 5]: −10% | Wet-shakes Presence [1, 6]: 9 ^NS | Forelimb Clonus No. [1, 6]: 0.6 ** | Rearings Latency [1, 6]: 4282 ^NS seconds | Rearings with Forelimb Clonus Latency [1, 6]: 6841 *** seconds | Wet-shakes Latency [1, 6]: 3753 * seconds | Rearings Presence [1, 6]: 9 ^NS | Rearings with Forelimb Clonus Presence [1, 6]: 4 *^

Cc1ccc2c(c1)c1c(n2CCc2ccc(C)nc2)CCN(C)C1 [Dimebon, 2,8-dimethyl-5-[2-(6-methyl-3-pyridyl)ethyl]-2,3,4,5-tetrahydro-1H-pyrido[4,3-b]indole]
Forelimb Clonus No., % change from vehicle [1, 7]: −32% | Rearings Latency, % change from vehicle [1, 7]: +24% | Rearings Presence, % change from vehicle [1, 7]: −33% | Rearings with Forelimb Clonus Latency, % change from vehicle [1, 7]: +19% | Rearings with Forelimb Clonus Presence, % change from vehicle [1, 7]: −30% | Wet-shakes Latency, % change from vehicle [1, 7]: +47%^(h) | Wet-shakes Presence, % change from vehicle [1, 7]: −20%^(g) | Wet-shakes Presence [1, 8]: 8 ^NS | Forelimb Clonus No. [1, 8]: 1.9 ^NS | Rearings Latency [1, 8]: 4896 ^NS seconds | Rearings with Forelimb Clonus Latency [1, 8]: 6009 * seconds | Wet-shakes Latency [1, 8]: 3615 ^NS seconds | Rearings Presence [1, 8]: 6 ^NS | Rearings with Forelimb Clonus Presence [1, 8]: 7 ^NS | Forelimb Clonus No., % change from vehicle [1, 9]: −11% | Rearings Latency, % change from vehicle [1, 9]: +4% | Rearings Presence, % change from vehicle [1, 9]: 0% | Rearings with Forelimb Clonus Latency, % change from vehicle [1, 9]: +7% | Rearings with Forelimb Clonus Presence, % change from vehicle [1, 9]: −10% | Wet-shakes Latency, % change from vehicle [1, 9]: +9% | Wet-shakes Presence, % change from vehicle [1, 9]: 0% | Wet-shakes Presence [1, 10]: 10 ^NS | Forelimb Clonus No. [1, 10]: 2.5 ^NS | Rearings Latency [1, 10]: 4134 ^NS seconds | Rearings with Forelimb Clonus Latency [1, 10]: 5366 ^NS seconds | Wet-shakes Latency [1, 10]: 2666 ^NS seconds | Rearings Presence [1, 10]: 9 ^NS | Rearings with Forelimb Clonus Presence [1, 10]: 9 ^NS | Forelimb Clonus No., % change from vehicle [1, 11]: −18% | Rearings Latency, % change from vehicle [1, 11]: +14% | Rearings Presence, % change from vehicle [1, 11]: −11% | Rearings with Forelimb Clonus Latency, % change from vehicle [1, 11]: +7% | Rearings with Forelimb Clonus Presence, % change from vehicle [1, 11]: −10% | Wet-shakes Latency, % change from vehicle [1, 11]: +17% | Wet-shakes Presence, % change from vehicle [1, 11]: 0% | Wet-shakes Presence [1, 12]: 10 ^NS | Forelimb Clonus No. [1, 12]: 2.3 ^NS | Rearings Latency [1, 12]: 4526 ^NS seconds | Rearings with Forelimb Clonus Latency [1, 12]: 5410 ^NS seconds | Wet-shakes Latency [1, 12]: 2865 ^NS seconds | Rearings Presence [1, 12]: 8 ^NS | Rearings with Forelimb Clonus Presence [1, 12]: 9 ^NS | Forelimb Clonus No., % change from vehicle [2]: −54% | Rearings Latency, % change from vehicle [2]: +57% | Rearings Presence, % change from vehicle [2]: −78% | Rearings with Forelimb Clonus Latency, % change from vehicle [2]: −10% | Rearings with Forelimb Clonus Presence, % change from vehicle [2]: −40% | Wet-shakes Latency, % change from vehicle [2]: +79%^(f) | Wet-shakes Presence, % change from vehicle [2]: −50%^(e) | Forelimb Clonus No. ([2]; average number of all animals): 1.3 ^NS | Rearings Latency ([2]; average of all animals): 6197 * seconds | Rearings with Forelimb Clonus Latency ([2]; average of all animals): 4546 ^NS seconds | Wet-shakes Latency ([2]; average of all animals): 4394 ^NS seconds | Rearings Presence ([2]; out of 10 animals): 2 * | Rearings with Forelimb Clonus Presence ([2]; out of 10 animals): 6 ^NS | Wet-shakes Presence ([2]; out of 10 animals): 5 ^NS

NC(CCCP(=O)(O)O)C(=O)O (stereo not drawn) [AP5, 2-amino-5-phosphonovaleric acid]
neurotoxic effects [3]: disturbance of coordination of movement and a sedative effect | ED50 (anti-NMDA effect) [4]: 190 mg/kg

Reference: patent US11389435B2, “Compositions and methods for treating epilepsy” (BIOVISTA, INC., priority 2008, dated 2022)
